Laboratory results taken from ChEMBL document CHEMBL1201862, “PubChem BioAssay data set” (2004).
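Each compound was tested at five concentrations against cells in 96-well plates for 48 hours. At the GI50, growth is halved.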 Active and inactive are the calls of the source. Cut-off read from the data, not from the text of the source: active = GI50 up to about 1.1 µM and inactive = higher.

Key:
Experiment in all cases: growth of human tumour cells (NCI), 48 h
SNB-19 = tested on: SNB-19
MDA-MB-231 = tested on: MDA-MB-231
786-0 = tested on: 786-0
HOP-62 = tested on: HOP-62
SK-MEL-28 = tested on: SK-MEL-28
NCI-H460 = tested on: NCI-H460
DU-145 = tested on: DU-145
NCI-H23 = tested on: NCI-H23
LOX IMVI = tested on: LOX IMVI
UO-31 = tested on: UO-31
BT-549 = tested on: BT-549
SK-MEL-5 = tested on: SK-MEL-5
SR = tested on: SR
SW-620 = tested on: SW-620
CAKI-1 = tested on: CAKI-1
MCF7 = tested on: MCF7
PC-3 = tested on: PC-3
SK-OV-3 = tested on: SK-OV-3
M14 = tested on: M14
NCI/ADR-RES = tested on: NCI/ADR-RES

Measured: GI50

CNC(=S)/N=c1/sc(NC)nc2sc3c(c12)CCCC3
inactive: SNB-19 35.9 µM | MDA-MB-231 51.9 µM | 786-0 38.1 µM | HOP-62 55 µM | SK-MEL-28 > 100 µM | NCI-H460 > 100 µM | DU-145 > 100 µM | NCI-H23 > 100 µM | LOX IMVI > 100 µM | UO-31 > 100 µM | BT-549 47.1 µM | SK-MEL-5 > 100 µM | SR > 100 µM | SW-620 > 100 µM | CAKI-1 > 100 µM | MCF7 > 100 µM | PC-3 > 100 µM | SK-OV-3 64.6 µM

COc1cc2c(c(O)c1O)C(=O)C1CCC(=O)N1C2c1cccc2ccccc12 (configuration not stated)
inactive: SNB-19 > 50 µM | 786-0 > 50 µM | HOP-62 > 50 µM | SK-MEL-28 > 50 µM | NCI-H460 > 50 µM | DU-145 > 50 µM | NCI-H23 > 50 µM | M14 > 50 µM | NCI/ADR-RES > 50 µM | UO-31 > 50 µM | BT-549 > 50 µM | SR > 50 µM | SW-620 > 50 µM | MCF7 > 50 µM | PC-3 > 50 µM | SK-OV-3 > 50 µM

CCOC(=O)c1c(SCCO)n(-c2ccccc2)c(=S)n(-c2ccccc2)c1=O
inactive: SNB-19 > 100 µM | 786-0 > 100 µM | HOP-62 > 100 µM | SK-MEL-28 > 100 µM | NCI-H460 > 100 µM | DU-145 > 100 µM | NCI-H23 > 100 µM | LOX IMVI > 100 µM | M14 > 100 µM | NCI/ADR-RES > 100 µM | UO-31 > 100 µM | BT-549 > 100 µM | SK-MEL-5 > 100 µM | SR > 100 µM | SW-620 > 100 µM | CAKI-1 > 100 µM | MCF7 > 100 µM | PC-3 > 100 µM | SK-OV-3 > 100 µM

COc1c(-c2cccs2)oc2c(CC(=O)O)cccc2c1=O
inactive: MDA-MB-231 > 100 µM | 786-0 > 100 µM | HOP-62 1.2 µM | DU-145 > 100 µM | NCI-H23 53.3 µM | M14 > 100 µM | UO-31 10.3 µM | BT-549 > 100 µM | SK-MEL-5 > 100 µM | SR 56 µM | CAKI-1 > 100 µM | MCF7 > 100 µM | PC-3 > 100 µM | SK-OV-3 > 100 µM
